The target in the assay is T1, Prostaglandin D2 receptor 2 (Homo sapiens, UniProt Q9Y5Y4).
T1 sequence (Q9Y5Y4 whole entry): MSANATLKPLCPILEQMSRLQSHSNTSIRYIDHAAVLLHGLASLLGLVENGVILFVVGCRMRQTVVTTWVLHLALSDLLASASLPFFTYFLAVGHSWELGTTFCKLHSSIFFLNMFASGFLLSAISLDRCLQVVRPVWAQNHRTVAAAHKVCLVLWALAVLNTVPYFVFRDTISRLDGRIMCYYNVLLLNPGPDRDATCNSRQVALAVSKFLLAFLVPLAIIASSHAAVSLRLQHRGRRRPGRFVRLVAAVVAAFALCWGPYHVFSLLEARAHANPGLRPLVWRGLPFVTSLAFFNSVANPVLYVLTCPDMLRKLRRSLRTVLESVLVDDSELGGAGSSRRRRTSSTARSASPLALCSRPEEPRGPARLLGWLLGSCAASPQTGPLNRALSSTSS
Kind of assay: Radioligand Binding Assay: Radioligand binding assay using CRTH2.

In general, Ki refers to a measure of affinity in units of concentration, obtained from inhibition or displacement. As for `Cc1c(Cc2cccnc2S(=O)(=O)c2ccc(Cl)cc2)c2cc(F)ccc2n1CC(=O)O`, affinity was put at a Ki of 7 nM.

Regarding `Cc1c(Cc2cccnc2S(=O)(=O)c2ccc(F)cc2)c2cc(F)ccc2n1CC(=O)O`, the inhibitory constant (Ki) was 2 nM.

The values are drawn from ChEMBL document CHEMBL3639129, “Compounds having CRTH2 antagonist activity” (2013).
